# Data as given in patent US20100119530A1, “Regulation of TLR Signaling by Complement” (priority 2007, published 2010).
# T1: C3a receptor (C3aR) (Mus musculus, UniProt O09047)
# T1 construct: Effect of a C3a receptor antagonist (C3aRa) and a C5a receptor antagonist (C5aRa) on LPS-induced plasma IL-6 levels in DAF^−/− mice; from tissue; host or cells: living C57BL/6 DAF-/- mice (whole animal)
# T1 sequence (O09047 1-477): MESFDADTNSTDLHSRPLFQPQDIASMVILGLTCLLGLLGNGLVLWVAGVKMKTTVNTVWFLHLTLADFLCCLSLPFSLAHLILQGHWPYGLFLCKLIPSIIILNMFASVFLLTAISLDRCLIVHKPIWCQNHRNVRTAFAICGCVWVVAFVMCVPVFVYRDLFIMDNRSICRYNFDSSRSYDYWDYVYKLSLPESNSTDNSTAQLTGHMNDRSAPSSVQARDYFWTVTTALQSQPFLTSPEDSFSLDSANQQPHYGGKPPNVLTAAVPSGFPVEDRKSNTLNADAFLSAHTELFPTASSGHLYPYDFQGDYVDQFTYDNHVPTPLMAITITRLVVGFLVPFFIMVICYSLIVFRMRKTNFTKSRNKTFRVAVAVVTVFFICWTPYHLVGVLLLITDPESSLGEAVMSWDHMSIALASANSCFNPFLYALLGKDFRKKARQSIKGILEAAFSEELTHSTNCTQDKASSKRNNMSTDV
# T2: C5a receptor (C5aR) (Mus musculus, UniProt P30993)
# T2 construct: from tissue; host or cells: living mice (A4: C57BL/6 DAF-/-; A12: wild-type, with C5aR-/- mice as control)
# T2 sequence (P30993 1-351): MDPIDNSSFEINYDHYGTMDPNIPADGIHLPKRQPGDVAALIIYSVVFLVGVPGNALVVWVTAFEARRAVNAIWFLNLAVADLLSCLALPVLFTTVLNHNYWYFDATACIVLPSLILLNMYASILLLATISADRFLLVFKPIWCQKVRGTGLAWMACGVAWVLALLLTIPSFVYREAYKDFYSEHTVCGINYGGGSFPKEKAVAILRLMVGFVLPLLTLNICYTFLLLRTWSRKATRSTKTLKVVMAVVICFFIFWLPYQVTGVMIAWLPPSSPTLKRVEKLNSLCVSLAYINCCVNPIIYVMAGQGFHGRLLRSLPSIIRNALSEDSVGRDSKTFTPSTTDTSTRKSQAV
# T3: C5aR (Mus musculus, UniProt P30993)
# T3 construct: from tissue; host or cells: living mice (A4: C57BL/6 DAF-/-; A12: wild-type, with C5aR-/- mice as control)
# T3 sequence (P30993 1-351): T2 sequence (P30993 1-351)
# B1: C5a: recombinant human C5a from Sigma-Aldrich; complement activation product, anaphylatoxin (protein, UniProt P01031 678-751, looked up)
# C5a anaphylatoxin: TLQKKIEEIAAKYKHSVVKKCCYDGACVNNDETCEQRAARISLGPRCIKAFTECCVVASQLRANISHKDMQLGR
# modifications: C5a anaphylatoxin
# B2: IL-6: cytokine added to naive CD4 T cell cultures to drive Th-17 differentiation (protein, UniProt P08505 25-211, looked up)
# Interleukin-6: FPTSQVRRGDFTEDTTPNRPVYTTSQVGGLITHVLWEIVEMRKELCNGNSDCMNNDDALAENNLKLPEIQRNDGCYQTGYNQEICLLKISSGLLEYHSYLEYMKNNLKDNKKDKARVLQRDTETLIHIFNQEVKDLHKIVLPTPISNALLTDKLESQKEWLRTKTIQFILKSLEEFLKVTLRSTRQT
# How the values were obtained:
# C3a receptor (C3aR) = target: T1, C3a receptor (C3aR); assay: LPS-induced plasma IL-6 in DAF−/− mice treated with C3a receptor antagonist; assay type: in vivo; conditions: 30 mg/kg i.p. 30 minutes before LPS
# Method: (§1) Mice were injected with the following TLR ligands: LPS (20 mg/kg in PBS, i.p.), zymosan (1 g/kg in 0.9% saline, i.p.), CpG (20 mg/kg in PBS, i.p.). In some experiments, mice were also treated with CVF (15 U/mouse in saline, i.p.), SB290157 (30 mg/kg in 20% polyethylene glycol 400 in saline, i.p.), AcPhe (50 μg/mouse in PBS, i.p.). EDTA (20 mM) anti-coagulated blood samples were collected from the tail vein or vena cava. Plasma was prepared by centrifugation at 1000×g for 15 min at 4° C. and stored as small aliquots at −80° C.
# C5a receptor (C5aR) = target: T2, C5a receptor (C5aR); assay: LPS-induced plasma IL-6 in DAF−/− mice treated with C5a receptor antagonist; assay type: in vivo; conditions: 50 μg/mouse i.p. 30 minutes before LPS
# Method: as §1
# [1] = system: LPS-induced cytokine production; assay: Serum cytokine concentrations in mice treated with TLR and/or complement activators; assay type: in vivo; conditions: mice co-treated with LPS and CVF
# Method: A set of experiment was conducted to measure serum concentrations of cytokines in mice untreated (NT) or treated with TLR and/or complement activators. […] On the other hand, CVF reduced LPS-induced IL-12 production (FIG. 8). Thus, the effect of CVF on LPS-induced cytokine production is dependent on complement C3 and C5aR but not C3aR signaling.
# C5aR [2] = target: T3, C5aR; assay: Synergistic effect of C5a with LPS on serum IL-6 in mice; assay type: in vivo
# Method: (§2) Next, the Synergistic effect of C5a with LPS in augmenting IL-6 production was tested. Instead of using the complement activator CVF, the complement activation product C5a was directly tested for its activity to synergize with LPS in IL-6 production. […] CVF treatment by itself has no effect on IL-6 production. Thus, the synergistic activity of C5a required C5aR as such an effect was not observed in C5aR^−/− mice (FIG. 10).
# TLR2/6 signaling = assay: Plasma cytokine ELISA in mice after zymosan or zymosan/CVF treatment; assay type: in vivo; conditions: wild-type mice co-treated with zymosan and CVF, 3 hours
# Method: as §1
# naive CD4 T cells = assay: Th-17 differentiation of purified naive CD4 T cells (anti-CD3/CD28) with cytokines or mouse sera, FACS; assay type: cell-based, mice; conditions: for Th-17 differentiation driven by serum of mice treated with the substance alone: naive CD4 T cells from wild-type mice, plate-bound anti-CD3 and CD28; for Effect of co-treatment on Th-17 differentiation driven by serum of LPS-treated mice: serum of mice co-treated with LPS and the substance; for Th-17 differentiation, cytokine alone: cells treated with the cytokine alone
# Text: To test whether the CVF-augmented inflammatory cytokine production promotes Th-17 differentiation, purified naive CD4 T cells from wild-type mice were stimulated in vitro with plate-bound anti-CD3 and CD28 in the presence of specific cytokines or sera of control (naive mouse) or LPS-, CVF-treated mice. […] The augmenting effect of CVF on LPS-dependent Th-17 differentiation required C3 and C5aR but not C3aR.
# The ability of C5a-induced augmentation of serum inflammatory cytokine production to promote Th-17 differentiation was assessed. Purified naive CD4 T cells from wild-type mice were stimulated in vitro with plate-bound anti-CD3 and CD28 in the presence of specific cytokines or sera of control (naive mouse) or LPS-, C5a-treated mice. […] Treatment of the cells with IL-6 alone or TGF-β alone had no effect on Th-17 differentiation. […] Thus the augmenting effect of C5a on LPS-dependent Th-17 differentiation required C5aR. These findings indicate that complement activation products, particularly C5a, synergize with the TLR activation pathway to augment inflammatory cytokine production. The complement system, through interaction with TLR, augments Th-17 differentiation and therefore plays a role in autoimmune tissue injury. FIGS. 8-11 provide evidence for this conclusion. Thus, inhibiting complement activation is a therapeutic approach for treating Th-17 T cell mediated autoimmune diseases such as multiple sclerosis, Lupus, inflammatory bowel disease, GvHD and transplant rejection.
# TLR9 = assay: Plasma cytokine ELISA in mice after CpG, CVF or CpG/CVF treatment; assay type: in vivo; conditions: wild-type mice, CVF co-treatment with CpG
# Method: as §1
# TLR4 signaling = assay: Plasma cytokine ELISA in mice after LPS, CVF or LPS/CVF treatment; assay type: in vivo; conditions: 3 hours; for Reduction of LPS-induced IL-12p40 by CVF treatment: LPS/CVF vs LPS
# Method: as §1
# [3] = system: C3 activation fragments (C3b/iC3b/C3c); assay: Complement activation assay (sandwich ELISA of plasma C3 activation fragments); assay type: in vivo; conditions: plasma samples of CpG-treated mice
# Method: Levels of C3 activation fragments (C3b/iC3b/C3c) in plasma were measured by a sandwich ELISA. For quantification purposes, 1/500 serial dilutions of CVF-activated WT mouse plasma (prepared by adding 2.5 μg (1.2 units) of CVF to 50 μl plasma and incubating for 1 h at 37° C.) were used as a reference, and complement activation in all testing samples was normalized to this reference sample.
# [4] = Measurement of plasma LPS levels (Pyrochrome Kit) after LPS injection; assay type: in vivo, mice; conditions: 3 hours after LPS injection (20 mg/kg i.p.), n=12
# Method: as §1
# Plasma LPS levels were determined using the Pyrochrome Kit from Associates of CAPE COD Incorporated (East Falmouth, Mass.). Plasma samples were treated at 70° C. for 10 minutes before assays to heat-inactivate serine proteases. Levels were expressed as units/ml of endotoxin.
# [5] = system: NF-kB luciferase reporter gene in RAW264.7 cells; assay: NF-kB luciferase reporter gene assay and TNF-α ELISA in transfected RAW 264.7 cells; assay type: cell-based, murine; conditions: transfected RAW264.7 cells
# Text: RAW 264.7 cells were co-transfected with NF-kB Luc (Clontech, Palo Alto, Calif.), human C5aR in pcDNA3 (UMA cDNA resource center, Rolla, Mo.) and the Rellina control vector (Promega, Madison, Wis.) using the Amaxa Nucleofector apparatus (Amaxa Biosystems, Germany). The RAW 264.7 cells expressed detectible levels of endogenous C5aR as assessed by FACS and RT-PCR. After transfection, they also became weakly positive for human C5aR as assessed by FACS. […] Cell culture supernatants were collected for IL-6 and TNF-α assays by ELISA. All assays were performed in triplicates.
# C5aR [6] = assay: Synergistic effect of C5a with LPS on serum IL-6 in mice; assay type: in vivo; conditions: C5aR−/− mice
# Method: as §2
# [7] = wild-type mice, CVF co-treatment with LPS
# [8] = wild-type mice, CVF treatment alone
molecule,measurement,setting,value
NC(N)=NCCC[C@H](NC(=O)COCC(c1ccccc1)c1ccccc1)C(=O)O [SB 290157],Effect on the increase in LPS-induced IL-6 production,C3a receptor (C3aR),significantly (p<0.001) attenuated
AcPhe,Effect on the increase in LPS-induced IL-6 production,C5a receptor (C5aR),totally blocked
Cobra venom factor [CVF],Effect on LPS-induced IL-12 production,[1],reduced
same,Effect on LPS-induced serum IL-1β,[1],augmented
same,Effect on LPS-induced serum IL-6,[1],augmented
same,Effect on LPS-induced serum TNF-α,[1],augmented
same,Serum IL-6 level,"C5aR [2]; mice co-treated with LPS, compared with LPS alone",greatly elevated
same,Effect on IL-6 production,"C5aR [2]; treatment by itself, without LPS",no effect
same,Effect on zymosan-induced IL-6 production,TLR2/6 signaling,Markedly increased
same,Effect on zymosan-induced IL-12p40 production,TLR2/6 signaling,decreased
same,Th-17 differentiation driven by serum of mice treated with the substance alone,naive CD4 T cells,unable to drive Th-17 differentiation
same,Effect of co-treatment on Th-17 differentiation driven by serum of LPS-treated mice,naive CD4 T cells,strongly augmented
same,Effect on CpG-induced IL-1β production,TLR9,no significant impact
same,Effect on CpG-induced TNF-α production,TLR9,no significant impact
same,Effect on CpG-induced IL-6 production,TLR9; 3 hours,no significant impact
same,Effect on CpG-induced IL-12p40 production,TLR9; 3 hours,markedly suppressed
same,Reduction of LPS-induced IL-12p40 by CVF treatment,TLR4 signaling; IL-10−/− mice,22%
same,Plasma IL-10 level,TLR4 signaling; LPS/CVF-treated wild-type mice compared with LPS- or CVF-treated wild-type mice,strikingly elevated
same,Effect on LPS-induced plasma IL-6,TLR4 signaling; [7],greatly increased
same,Effect on LPS-induced plasma IL-12p40,TLR4 signaling; [7],decreased
same,Effect on IL-6 production,TLR4 signaling; [8],negligible effect
same,Effect on IL-12p40 production,TLR4 signaling; [8],negligible effect
same,Reduction of LPS-induced IL-12p40 by CVF treatment,TLR4 signaling; wild-type mice,87%
CpG 1826 (5′-TCCATGACGTFCCTGACGTT-3′),Complement activation in plasma,[3],detectable complement activation
TGF-β,"Th-17 differentiation, cytokine alone",naive CD4 T cells,no effect
lipopolysaccharide [LPS],Plasma LPS concentration,[4]; DAF−/− mice,1200±307 EU/ml
same,Plasma LPS concentration,[4]; wild-type mice,925±413 EU/ml
same,Th-17 differentiation driven by serum of mice treated with the substance alone,naive CD4 T cells,active in driving Th-17 differentiation
B1,Secretion of endogenous TNF-α,[5]; C5a (50 nM) with LPS (1000 ng/ml) per FIG. 4D legend,synergized with LPS
same,Secretion of endogenous TNF-α,[5]; C5a alone,negligible effect on its own
same,Synergistic effect with LPS on IL-6 production,C5aR [6],not observed
same,Th-17 differentiation driven by serum of mice treated with the substance alone,naive CD4 T cells,unable to drive Th-17 differentiation
same,Effect of co-treatment on Th-17 differentiation driven by serum of LPS-treated mice,naive CD4 T cells,strongly augmented
B2,Th-17 differentiation in the presence of TGF-β,naive CD4 T cells; IL-6 in the presence of TGF-β,differentiated into Th-17 cells
same,"Th-17 differentiation, cytokine alone",naive CD4 T cells,no effect
